Laboratory results as given in patent publication US5457119A, “A89271 factors and processes for their production” (priority 1994, dated 1995).
In brackets after ≈: the same amount, converted by molar mass.

Legend:
Assay type in all cases: cell-based
Aspergillus fumigatus [1] = assay: In vitro antifungal activity, Antibiotic 3 broth (Difco); settings: Table 7
From the text: (§1) In those tables, a dash or "N.T." means the material was not tested.

[2] = system: Trichophyton mentagrophytes; assay: as above
From the text: as §1

Candida albicans [3] = assay: as above; settings: Table 7
From the text: as §1

[4] = system: H8 human colon solid tumor cell line; assay: Disk diffusion soft agar colony formation assay; settings: 200 zone units = 6 MM
Experimental: (§2) The method of performing the disk diffusion soft agar colony […] assay is described in Chapter 3 of Cytotoxic Anticancer Drugs: Models and Concepts for Drug Discovery and Development (Frederick A. Valeriote, et al., eds., 1990). In addition to the procedure taught in this reference, one mL ethanol was added to each dry factor in a vial, and the desired concentration of solution was placed on a paper disk. The disk was dried and then placed on soft agar plates as described in the reference.
H8 = human colon solid tumor cell line
(§3) ^2 Measurement in zone units; 200 zone units = 6 MM

[5] = system: L1210 murine leukemia cell line; assay: Disk diffusion soft agar colony formation assay; settings: 200 zone units = 6 MM
Experimental: as §2
L1210 = murine leukemia cell line
as §3

[6] = system: Mam17 murine mammary solid tumor cell line; assay: Disk diffusion soft agar colony formation assay; settings: 200 zone units = 6 MM
Experimental: as §2
Mam17 = murine mammary solid tumor cell line
as §3

Aspergillus fumigatus [7] = assay: In vitro antifungal activity, RPMI and 10% fetal calf serum broth; settings: Table 5
From the text: as §1

[8] = system: Trichophyton mentagrophytes; assay: as above
From the text: as §1

Candida albicans [9] = assay: as above
From the text: as §1

[10] = system: P03 murine pancreatic solid tumor cell line; assay: Disk diffusion soft agar colony formation assay; settings: 200 zone units = 6 MM
Experimental: as §2
P03 = murine pancreatic solid tumor cell line
as §3

[11] = system: LML "Low Malignancy Line" fibroblast; assay: Disk diffusion soft agar colony formation assay; settings: 200 zone units = 6 MM
Experimental: as §2
LML = "Low Malignancy Line" fibroblast
as §3

[12] = system: C38 murine colon solid tumor cell line; assay: Disk diffusion soft agar colony formation assay; settings: 200 zone units = 6 MM
Experimental: as §2
C38 = murine colon solid tumor cell line
as §3

Aspergillus fumigatus [13] = assay: In vitro antifungal activity, Sabouraud's and Dextrose broth
From the text: as §1

[14] = system: Trichophyton mentagrophytes; assay: as above
From the text: as §1

Candida albicans [15] = assay: as above
From the text: as §1

[16] = system: CX-1 human colon solid tumor cell line; assay: Disk diffusion soft agar colony formation assay; settings: factor line, no dose given, 200 zone units = 6 MM
Experimental: as §2
CX1 = human colon solid tumor cell line
as §3

[17] = unlabelled line below the (80 ug) line
[18] = Table 5, RPMI and 10% Fetal Calf Serum Broth
[19] = Table 3, RPMI & 10% Fetal Calf Serum Broth
[20] = Table 1, RPMI and 10% Fetal Calf Serum Broth
[21] = unlabelled line below the (45 ug) line

SMILES | MIC (Aspergillus fumigatus [1]) | MIC (Candida albicans [3]) | Measurement in zone units ([4]; 20 ug per disk) | Measurement in zone units ([4]; 80 ug per disk) | Measurement in zone units ([5]; 20 ug per disk) | Measurement in zone units ([5]; 80 ug per disk) | Measurement in zone units ([5]; factor line, no dose given) | Measurement in zone units ([6]; factor line, no dose given) | MIC (Aspergillus fumigatus [7]) | MIC (Candida albicans [9]; [18]) | Measurement in zone units ([11]; 20 ug per disk) | Measurement in zone units ([11]; 80 ug per disk) | Measurement in zone units ([12]; 20 ug per disk) | Measurement in zone units ([12]; factor line, no dose given) | MIC (Aspergillus fumigatus [13]; Table 6) | MIC [8, 19] | MIC (Candida albicans [9]; [19]) | MIC (Aspergillus fumigatus [13]; Table 4) | MIC ([14]; Table 4) | MIC (Candida albicans [15]; Table 4) | also measured
[C-]#[N+]C1C(C)(C=C)CCC2C(C)(C)c3cccc4[nH]c(C(C)(C)C=C)c(c34)C12O (stereo not drawn) [A89271 E] | > 80 µg/mL | 5.0 µg/mL (≈ 12.9 µM) | 100-180 zone units | 220-240 zone units | 100-200 zone units | 250-300 zone units | 280 zone units | 350 zone units | > 80 µg/mL | 2.5 µg/mL (≈ 6.43 µM) | 80 zone units | 100-180 zone units | 300-360 zone units | 300 zone units | > 80 µg/mL | – | – | – | – | – | MIC ([2]; Table 7): 5.0 µg/mL (≈ 12.9 µM); Measurement in zone units [5, 17]: 200-220 zone units; MIC [8, 18]: 2.5 µg/mL (≈ 6.43 µM); Measurement in zone units ([10]; 80 ug per disk): 440-500 zone units; Measurement in zone units [10, 17]: 460 zone units; Measurement in zone units [12, 17]: 480-500 zone units; MIC ([14]; Table 6): 2.5 µg/mL (≈ 6.43 µM); MIC (Candida albicans [15]; Table 6): 5 µg/mL (≈ 12.9 µM)
[C-]#[N+]C12C3OC3C(C)(C)c3[nH]c4cccc5c4c3C1(O)C(CC(Cl)C2(C)C=C)C5(C)C (stereo not drawn) [A89271 F] | – | – | 200-350 zone units | 200-400 zone units | 300-350 zone units | 350-460 zone units | 200-250 zone units | – | – | – | 0-80 zone units | 0-120 zone units | 590 zone units | 500 zone units | – | 1.25 µg/mL (≈ 2.86 µM) | 1.25 µg/mL (≈ 2.86 µM) | > 80 µg/mL | > 80 µg/mL | 1.25 µg/mL (≈ 2.86 µM) | Measurement in zone units ([4]; 16 ug per disk): 200-330 zone units; Measurement in zone units ([4]; factor line, no dose given): 200-300 zone units; Measurement in zone units ([5]; 8 ug per disk): 250-280 zone units; Measurement in zone units ([5]; 16 ug per disk): 0-220 zone units; Measurement in zone units ([6]; 8 ug per disk): 250 zone units; Measurement in zone units ([10]; 16 ug per disk): 440 zone units; Measurement in zone units ([10]; factor line, no dose given): 500 zone units; Measurement in zone units ([11]; 8 ug per disk): 0-400 zone units; Measurement in zone units ([12]; 16 ug per disk): 460 zone units; Measurement in zone units ([12]; 80 ug per disk): 550-580 zone units
C[C@@H]1[C@H](O)[C@@H](C)/C=C/C=C/C=C/C=C/C=C/C=C/C=C/[C@H](O[C@@H]2O[C@H](C)[C@@H](O)[C@H](N)[C@@H]2O)C[C@@H]2O[C@](O)(C[C@@H](O)C[C@@H](O)[C@H](O)CC[C@@H](O)C[C@@H](O)CC(=O)O[C@H]1C)C[C@H](O)[C@H]2C(=O)O [Amphotericin B, reference compound] | 0.039 µg/mL (≈ 0.0422 µM) | 0.02 µg/mL (≈ 0.0216 µM) | – | – | – | – | – | – | 1.25 µg/mL (≈ 1.35 µM) | 0.625 µg/mL (≈ 0.676 µM) | – | – | – | – | 5.0 µg/mL (≈ 5.41 µM) | – | 0.156 µg/mL (≈ 0.169 µM) | 1.25 µg/mL (≈ 1.35 µM) | – | 0.312 µg/mL (≈ 0.338 µM) | MIC (Candida albicans [9]; [20]): 0.156 µg/mL (≈ 0.169 µM); MIC (Aspergillus fumigatus [13]; Table 2): 1.25 µg/mL (≈ 1.35 µM); MIC (Candida albicans [15]; Table 2): 0.625 µg/mL (≈ 0.676 µM); MIC (Candida albicans [15]; Table 6): 0.312 µg/mL (≈ 0.338 µM)
[C-]#[N+]C1C2c3c(C(C)(C)C=C)[nH]c4cccc(c34)C(C)(C)C2CC(Cl)C1(C)C=C (stereo not drawn) [A89271 B] | – | – | 180 zone units | 200-300 zone units | 100-200 zone units | 200-250 zone units | 210 zone units | 220 zone units | – | – | 0-100 zone units | 80-250 zone units | 260-400 zone units | – | – | 2.5 µg/mL (≈ 6.14 µM) | 1.25 µg/mL (≈ 3.07 µM) | 20 µg/mL (≈ 49.1 µM) | > 80 µg/mL | 1.25 µg/mL (≈ 3.07 µM) | Measurement in zone units ([11]; factor line, no dose given): 0-250 zone units; Measurement in zone units ([12]; 80 ug per disk): 430 zone units; Measurement in zone units [16]: 220 zone units
Cc1cccc(N(C)C(=S)Oc2ccc3ccccc3c2)c1 [Tolnaftate, reference compound] | – | – | – | – | – | – | – | – | – | – | – | – | – | – | – | – | – | – | – | – | MIC ([2]; Table 7, read-out: MIC): 0.02 µg/mL (≈ 0.0651 µM); MIC ([8]; Table 1, RPMI and 10% Fetal Calf Serum Broth, read-out: MIC): 0.039 µg/mL (≈ 0.127 µM); MIC ([8]; Table 3, RPMI & 10% Fetal Calf Serum Broth, read-out: MIC): < 0.02 µg/mL; MIC ([8]; Table 5, RPMI and 10% Fetal Calf Serum Broth, read-out: MIC): 0.02 µg/mL (≈ 0.0651 µM); MIC ([14]; Table 2, read-out: MIC): 0.039 µg/mL (≈ 0.127 µM); MIC ([14]; Table 4, read-out: MIC): < 0.02 µg/mL; MIC ([14]; Table 6, read-out: MIC): 0.02 µg/mL (≈ 0.0651 µM)
[C-]#[N+]C12C3OC3C(C)(C)c3[nH]c4cccc5c4c3C1(O)C(CCC2(C)C=C)C5(C)C (stereo not drawn) [A89271 I] | > 80 µg/mL | 1.25 µg/mL (≈ 3.11 µM) | 100-180 zone units | – | 100-250 zone units | 200-220 zone units | 260 zone units | 250 zone units | > 80 µg/mL | 1.25 µg/mL (≈ 3.11 µM) | 0-180 zone units | 100-200 zone units | 680 zone units | – | > 80 µg/mL | – | – | – | – | – | MIC ([2]; Table 7): 5.0 µg/mL (≈ 12.4 µM); Measurement in zone units ([4]; 16 ug per disk): 120 zone units; Measurement in zone units ([5]; 16 ug per disk): 110 zone units; MIC [8, 18]: 2.5 µg/mL (≈ 6.21 µM); Measurement in zone units ([10]; 16 ug per disk): 420 zone units; Measurement in zone units ([10]; 80 ug per disk): 490 zone units; Measurement in zone units ([11]; factor line, no dose given): 0-200 zone units; Measurement in zone units ([12]; 16 ug per disk): 390 zone units; Measurement in zone units ([12]; 80 ug per disk): 500 zone units; MIC ([14]; Table 6): 2.5 µg/mL (≈ 6.21 µM); MIC (Candida albicans [15]; Table 6): 2.5 µg/mL (≈ 6.21 µM)
[C-]#[N+]C12C(O)C(O)C(C)(C)c3[nH]c4cccc5c4c3C1(O)C(CC(Cl)C2(C)C=C)C5(C)C (stereo not drawn) [A89271 D] | – | – | – | – | – | – | – | – | – | – | – | – | – | – | – | 0.625 µg/mL (≈ 1.37 µM) | 1.25 µg/mL (≈ 2.75 µM) | > 80 µg/mL | > 80 µg/mL | 1.25 µg/mL (≈ 2.75 µM) | –
[C-]#[N+]C1C(C)(C=C)C(Cl)CC2C(C)(C)c3cccc4[nH]c(C(C)(C)C=C)c(c34)C21O (stereo not drawn) [A89271 C] | – | – | – | – | – | – | – | – | – | – | – | – | – | – | – | 0.625 µg/mL (≈ 1.48 µM) | 1.25 µg/mL (≈ 2.96 µM) | > 80 µg/mL | > 80 µg/mL | 2.5 µg/mL (≈ 5.91 µM) | –
[C-]#[N+]C12C3OC3C(C)(C)C3=Nc4cccc5c4C3(O)C1(O)C(CC(Cl)C2(C)C=C)C5(C)C (stereo not drawn) [A89271 A] | – | – | – | – | – | – | 0-400 zone units | – | – | – | – | – | – | 650 zone units | – | – | – | – | – | – | Measurement in zone units ([4]; 9 ug per disk): 200-330 zone units; Measurement in zone units ([4]; 11 ug per disk): 250-420 zone units; Measurement in zone units [4, 21]: 300-470 zone units; Measurement in zone units ([5]; 9 ug per disk): 200-250 zone units; Measurement in zone units ([5]; 11 ug per disk): 250-320 zone units; MIC [8, 20]: > 20 µg/mL; MIC (Candida albicans [9]; [20]): 2.5 µg/mL (≈ 5.52 µM); Measurement in zone units ([10]; 9 ug per disk): 500 zone units; Measurement in zone units ([10]; factor line, no dose given): 650 zone units; Measurement in zone units ([11]; 11 ug per disk): 0-300 zone units; Measurement in zone units [11, 21]: 0-300 zone units; Measurement in zone units ([12]; 9 ug per disk): 480 zone units; Measurement in zone units ([12]; 11 ug per disk): 610 zone units; Measurement in zone units ([12]; 45 ug per disk): 670 zone units; Measurement in zone units [12, 21]: 750 zone units; MIC (Aspergillus fumigatus [13]; Table 2): 80 µg/mL (≈ 177 µM); MIC ([14]; Table 2): 10 µg/mL (≈ 22.1 µM); MIC (Candida albicans [15]; Table 2): 2.5 µg/mL (≈ 5.52 µM); Measurement in zone units [16]: 600-650 zone units
